Data on eleven compounds can be found in PubChem BioAssay AID504726 (Broad Institute, 2011).

Values joined by “and” are separate entries in the source; they are usually repeats but may differ in a detail not shown here. Equal entries are not always repeated. Active and inactive are the calls of the source.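 The calls were made as follows: active = fitted half-maximal concentration for a cytotoxic signal drop no higher than ten times the top valid dose tested; inconclusive = flat curve between -70 and -30 percent, or an unreliable fit; inactive = flat within 30 percent, signal rise, or potency beyond limit.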

Tested on in one assay: not listed separately
Kind of assay: viability loss in HeLa cells – cell-based, 24 h, cherry-picked samples, cytotoxicity control, dose response (AID 504726).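 As to activity change, negative = cytotoxicity: 0% = DMSO neutral controls and -100% = mitoxantrone positive controls.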 The following applies: HeLa viability, CellTiter-Glo ATP luminescence, 24 h; at 35 µM (top of the series). (In general: In ATP-based viability assays light output follows the ATP content of the culture.)
As for `COc1ccc(Cl)cc1C(=O)NNC(=O)c1cc2ccccc2o1`, the activity change, negative = cytotoxicity is -3.35% (inactive).

As to `O=C(CCn1c(=S)oc2ccccc21)N1CCN(c2ccc(F)cc2)CC1`, the activity change, negative = cytotoxicity is 2.32% (inactive).

Turning to `O=C(O)CC1(CC(=O)NCc2ccncc2)CCCCC1`, the activity change, negative = cytotoxicity was -9.28% (inactive).

As for `N#CCCN(CCC#N)C(=O)C1c2ccccc2Oc2ccccc21`, the activity change, negative = cytotoxicity is -3.39% (inactive). Take `O=c1oc2ccccc2nc1/C=C(\O)c1ccc(Br)cc1`: the activity change, negative = cytotoxicity was -12.7% (inactive). Take `O=C(CCCN1C(=O)/C(=C\c2ccco2)SC1=S)Nc1ccc(O)cc1C(=O)O`: the activity change, negative = cytotoxicity is 4.85% (inactive). The same measure, in the same setting: the value for `O=C(Nc1ccccc1F)c1coc(=O)c(Br)c1` was -20.2% (inactive). For the compound `CSc1n[nH]c(=O)n1-c1cccc(Cl)c1`, the activity change, negative = cytotoxicity was 12.8% (inactive). As for `COc1cc(SC)ccc1C(=O)OCC(=O)N1CCN(C(C)=O)CC1`, the activity change, negative = cytotoxicity was 11.9% (inactive).

Consider `CC1Cc2ccccc2N1C(=O)CCS(=O)(=O)c1cccs1` (stereo unspecified), for which the activity change, negative = cytotoxicity was -6.91% (inactive).

A further assay has as its system HeLa viability, CellTiter-Glo ATP luminescence, 24 h. Described as above.
Conditions: not given
Usually AC50 stands for the midpoint of the concentration-response curve, whichever way the signal moves. As to `O=C1c2c(O)ccc(O)c2C(=O)c2c(NCCNCCO)ccc(NCCNCCO)c21`, the AC50 was 1360 nM and 4080 nM.
